The experiment has as its system c-Met. As to the kind of experiment: c-Met activation (ERK phosphorylation) by pro-HGF versus active HGF in HT29 and BSp73Asv4-7Δ15 cell lines, Western blot. It counts as cell-based. Particulars: HT29 and BSp73Asv4-7Δ15 cells with competent CD44 isoforms, FIG. 5. From the text: HGF/SF is secreted as single-stranded precursor which is processed by serum proteinases (Shimomura, 1995) or plasminogen activators of the urokinase type (Naldini, 1995) into an active a form and β subunits. Investigations into whether CD44 is involved in the activation of HGF was employed HGF precursor which was purchased and isolated from Drosophila Schneider cells (S2) for the activation of c-Met (FIG. 5).
(B) Western blot analyses to investigate the cleavage of the precursors pro-HGF (HGFp; enriched from Drosophila Schneider cells (S2)) into the active form HGFa by means of CD44 in the HT29 and BSp73Asv4-7Δ15 cell lines. The pro form is unable, despite the presence of competent CD44 isoforms, to mediate ERK phosphorylation by c-Met activation. In contrast thereto, processed, active HGF is capable, with the assistance of competent CD44 isoforms, of c-Met activation.
(C) Western blot analysis to investigate the cleavage of the precursor pro-HGF (HGFp; commercial) into the active form HGFa by means of CD44 in the HT29 and BSp73Asv4-7Δ15 cell lines. The pro form is unable, despite the presence of competent CD44-isoforms, to mediate ERK phosphorylation by c-Met activation. In contrast thereto, processed, active HGF is capable, with the assistance of competent CD44 isoforms, of c-Met activation.

For “pro-HGF: single-stranded HGF/SF precursor, purchased or isolated from Drosophila Schneider cells (S2)”, the “Ability to activate c-Met / mediate ERK phosphorylation” value is on record as “unable”. The “Ability to activate c-Met / mediate ERK phosphorylation” value (listed as pro form of HGF) is “unable to activate c-Met”.

These data come from patent US20060166287A1, “Method for Identifying compounds for suppressing metastasizing tumor cells” (priority 2002, published 2006).
